Assay results published in patent US8933099B2, “Monocyclic pyridine derivative” (Eisai R&D Management Co., Ltd., priority 2013, dated 2015).
Like-named read-outs stand apart in the source and are kept apart here.

Assays:
[1] = tested on: human stomach cancer cell line SNU-16 (FGFR2 gene amplification); assay: SNU-16 growth inhibition assay; format: cell-based; conditions: Homo sapiens, SNU-16, 72 h
Procedure: In this assay, the growth inhibitory activity of a test substance in a human stomach cancer cell line harboring FGFR2 gene amplification is measured.
Then, 10 μL of Cell Counting Kit-8 (Dojindo Laboratories, CK04) was added to each well, and the resultant was incubated for 1 to 2 hours in a 5% CO2 incubator (37° C.) to cause a color reaction. The absorbance value was measured with ENVISION™ (PerkinElmer Co., Ltd.) at 450 nm.

[2] = tested on: normal human umbilical vein endothelial cells (HUVEC); assay: HUVEC growth inhibition assay (VEGF-induced); format: cell-based; conditions: Homo sapiens, HUVEC, 72 h, read-out: HUVEC (IC50 (nM)), growth in the presence of VEGF 10 ng/mL, 3 days
Procedure: The absorbance value was measured with ENVISION™ (PerkinElmer Co., Ltd.) at 450 nm. The absorbance values of the wells without adding the test substance but with VEGF addition was defined as 100% and the absorbance values of the wells with neither the test substance nor VEGF addition was defined as 0%.

[3] = read-out: SNU-16 (IC50 (nM)), cell growth, 3 days, Cell Counting Kit-8

Structure (SMILES)	IC50 [1, 3] [nM]	IC50 [2] [nM]	IC50 ([1]; read-out: SNU-16 (IC50 (nM))) [nM]
CNC(=O)n1ccc2cc(Oc3ccnc(NC(=O)c4ccc(C5CCN(CCCF)CC5)cc4)c3)c(OC)cc21 [Example 5, 5-((2-(4-(1-(3-Fluoropropyl)piperidin-4-yl)benzamide)pyridin-4-yl)oxy)-6-methoxy-N-methyl-1H-indole-1-carboxamide]	13.4	387	
CNC(=O)n1ccc2cc(Oc3ccnc(NC(=O)c4ccc(C5CCNCC5F)cc4)c3)c(OC)cc21 (stereo not shown) [Example 6, 5-((2-(4-(3-Fluoropiperidin-4-yl)benzamide)pyridin-4-yl)oxy)-6-methoxy-N-methyl-1H-indole-1-carboxamide]	9.1	180	
CNC(=O)n1ccc2cc(Oc3ccnc(NC(=O)c4ccc(C5(F)CCNCC5)cc4)c3)c(OC)cc21 [Example 7, 5-((2-(4-(4-Fluoropiperidin-4-yl)benzamide)pyridin-4-yl)oxy)-6-methoxy-N-methyl-1H-indole-1-carboxamide]	9.6	205	
CNC(=O)n1ccc2cc(Oc3ccnc(NC(=O)c4ccc(N5CCC(N6CCCC6)CC5)cc4)c3)c(OC)cc21 [Example 8, 6-Methoxy-N-methyl-5-((2-(4-(4-(pyrrolidin-1-yl)piperidin-1-yl)benzamide)pyridin-4-yl)oxy)-1H-indole-1-carboxamide]	15.4	140	
CNC(=O)n1ccc2cc(Oc3ccnc(NC(=O)c4ccc(CN5C[C@H](OC)[C@@H](O)C5)cc4)c3)c(OC)cc21 [Example 10, 5-((2-(4-(((3S,4S)-3-Hydroxy-4-methoxypyrrolidin-1-yl)methyl)benzamide)pyridin-4-yl)oxy)-6-methoxy-N-methyl-1,4-indole-1-carboxamide]	28.7	350	
CCN1CCN(CCc2ccc(C(=O)Nc3cc(Oc4cc5ccn(C(=O)NC)c5cc4OC)ccn3)cc2)CC1 [Example 11, 5-((2-(4-(2-(4-Ethylpiperazin-1-yl)ethyl)benzamide)pyridin-4-yl)oxy)-6-methoxy-N-methyl-1H-indole-1-carboxamide]	14.5	132	
CNC(=O)n1ccc2cc(Oc3ccnc(NC(=O)c4ccc(OCCN5CCC(O)CC5)cc4)c3)c(OC)cc21 [Example 12, 5-((2-(4-(2-(4-Hydroxypiperidin-1-yl)ethoxy)benzamide)pyridin-4-yl)oxy)-6-methoxy-N-methyl-1H-indole-1-carboxamide]	13	141	
CCN1CCC(n2cc(C(=O)Nc3cc(Oc4cc5ccn(C(=O)NC)c5cc4OC)ccn3)cn2)CC1 [Example 13, 5-((2-(1-(1-Ethylpiperidin-4-yl)-1H-pyrazole-4-carboxamide)pyridin-4-yl)oxy)-6-methoxy-N-methyl-1H-indole-1-carboxamide]	10.9	396	
CNC(=O)n1ccc2cc(Oc3ccnc(NC(=O)c4ccc(OC5CCN(CCO)CC5)cc4)c3)c(OC)cc21 [Example 14, 5-((2-(4-((1-(2-Hydroxyethyl)piperidin-4-yl)oxy)benzamide)pyridin-4-yl)oxy)-6-methoxy-N-methyl-1H-indole-1-carboxamide]	9.5	169	
CCOc1cc2c(ccn2C(=O)NC)cc1Oc1ccnc(NC(=O)c2ccc(C3CCNCC3)cc2)c1 [Example 15, 6-Ethoxy-N-methyl-5-((2-(4-(piperidin-4-yl)benzamide)pyridin-4-yl)oxy)-1H-indole-1-carboxamide]			9.7
CNC(=O)n1ccc2cc(Oc3ccnc(NC(=O)c4ccc(C5CCNCC5)cc4)c3)c(OC(C)C)cc21 [Example 17, 6-Isopropoxy-N-methyl-5-((2-(4-(piperidin-4-yl)benzamide)pyridin-4-yl)oxy)-1H-indole-1-carboxamide]			17.7
CNC(=O)n1ccc2cc(Oc3ccnc(NC(=O)c4ccc(C5CCN(C[C@@H](C)O)CC5)cc4)c3)c(OC(C)C)cc21 [Example 18, (R)-5-((2-(4-(1-(2-Hydroxypropyl)piperidin-4-yl)benzamide)pyridin-4-yl)oxy)-6-isopropoxy-N-methyl-1H-indole-1-carboxamide]	13.9	180	
CNC(=O)n1ccc2cc(Oc3ccnc(NC(=O)c4ccc(CN5CCC(O)CC5)cc4)c3)c(OC(F)F)cc21 [Example 19, 6-(Difluoromethoxy)-5-((2-(4-((4-hydroxypiperidin-1-yl)methyl)benzamide)pyridin-4-yl)oxy)-N-methyl-1H-indole-1-carboxamide]	14.1	151	
CNC(=O)n1ccc2cc(Oc3ccnc(NC(=O)c4ccc(C5CCNCC5)cc4)c3)c(OCCOC)cc21 [Example 20, 6-(2-Methoxyethoxy)-N-methyl-5-((2-(4-(piperidin-4-yl)benzamide)pyridin-4-yl)oxy)-1H-indole-1-carboxamide]			7.5
CNC(=O)n1ccc2cc(Oc3ccnc(NC(=O)c4ccc(C5CCN(C(C)C)CC5)cc4)c3)c(OCCOC)cc21 [Example 23, 5-((2-(4-(1-Isopropylpiperidin-4-yl)benzamide)pyridin-4-yl)oxy)-6-(2-methoxyethoxy)-N-methyl-1H-indole-1-carboxamide]	6.5	300	
CCOCCOc1cc2c(ccn2C(=O)NC)cc1Oc1ccnc(NC(=O)c2ccc(C3CCNCC3)cc2)c1 [Example 24, 6-(2-Ethoxyethoxy)-N-methyl-5-((2-(4-(piperidin-4-yl)benzamide)pyridin-4-yl)oxy)-1H-indole-1-carboxamide]			6.2
CCOCCOc1cc2c(ccn2C(=O)NC)cc1Oc1ccnc(NC(=O)c2ccc(C3CN(CCO)C3)cc2)c1 [Example 27, 6-(2-Ethoxyethoxy)-5-((2-(4-(1-(2-hydroxyethyl)azetidin-3-yl)benzamide)pyridin-4-yl)oxy)-N-methyl-1H-indole-1-carboxamide]	6.2	218	
CCOCCOc1cc2c(ccn2C(=O)NC)cc1Oc1ccnc(NC(=O)c2ccc(CN3C[C@@H](C)N[C@@H](C)C3)cc2)c1 [Example 30, 5-((2-(4-(((3S,5R)-3,5-Dimethylpiperazin-1-yl)methyl)benzamide)pyridin-4-yl)oxy)-6-(2-ethoxyethoxy)-N-methyl-1H-indole-1-carboxamide]		566	
CCOc1cc2c(ccn2C(=O)NC)cc1Oc1ccnc(NC(=O)c2ccc(C3CCN(CC(C)(C)O)CC3)cc2)c1 [Example 58]			10
CNC(=O)n1ccc2cc(Oc3ccnc(NC(=O)c4ccc(C5CCN(C)CC5)cc4)c3)c(OC(C)C)cc21 [Example 69]			17.5

Structure (SMILES)	IC50 [1, 3] [nM]	IC50 [2] [nM]	IC50 ([1]; read-out: SNU-16 (IC50 (nM))) [nM]
CNC(=O)n1ccc2cc(Oc3ccnc(NC(=O)c4ccc(C5CN(CC(C)(C)O)C5)cc4)c3)c(OCCOC)cc21 [Example 79]			4.6
CNC(=O)n1ccc2cc(Oc3ccnc(NC(=O)c4ccc(CN5CCC[C@H]5CO)s4)c3)c(OCCOC)cc21 [Example 83]		310	
CNC(=O)n1ccc2cc(Oc3ccnc(NC(=O)c4ccc(C5CN(C)C5)cc4)c3)c(OCCOC)cc21 [Example 87]			3.9
CNC(=O)n1ccc2cc(Oc3ccnc(NC(=O)c4ccc(C5CN(C(C)C)C5)cc4)c3)c(OCCOC)cc21 [Example 88]			6.9
CCOCCOc1cc2c(ccn2C(=O)NC)cc1Oc1ccnc(NC(=O)c2ccc(C3CN(CC(C)(C)O)C3)cc2)c1 [Example 95]			5.1
CCOCCOc1cc2c(ccn2C(=O)NC)cc1Oc1ccnc(NC(=O)c2ccc(C3CN(C[C@@H](C)O)C3)cc2)c1 [Example 96]			6.4
CCOCCOc1cc2c(ccn2C(=O)NC)cc1Oc1ccnc(NC(=O)c2ccc(C3CN(C[C@H](C)O)C3)cc2)c1 [Example 97]			3.6
CCOCCOc1cc2c(ccn2C(=O)NC)cc1Oc1ccnc(NC(=O)c2ccc(CN3CC[C@@H](O)C3)cc2)c1 [Example 106]		726	
CCOCCOc1cc2c(ccn2C(=O)NC)cc1Oc1ccnc(NC(=O)c2ccc(C3CCN(CC(C)(C)O)CC3)cc2)c1 [Example 109]			6.7
CCOCCOc1cc2c(ccn2C(=O)NC)cc1Oc1ccnc(NC(=O)c2ccc(C3CCN(C(C)C)CC3)cc2)c1 [Example 110]			5.8
CCOCCOc1cc2c(ccn2C(=O)NC)cc1Oc1ccnc(NC(=O)c2ccc(C3CCN(CC)CC3)cc2)c1 [Example 113]			5.7
CCOCCOc1cc2c(ccn2C(=O)NC)cc1Oc1ccnc(NC(=O)c2ccc(C3CCN(C)CC3)cc2)c1 [Example 114]			4.7
CNC(=O)n1ccc2cc(Oc3ccnc(NC(=O)c4ccc(CN5CCC[C@@H]5CO)cc4)c3)c(OCCCOC)cc21 [Example 116]		520	
CNC(=O)n1ccc2cc(Oc3ccnc(NC(=O)c4ccc(CN5CC[C@H](O)C5)cc4)c3)c(OCCCOC)cc21 [Example 120]		457	
CNC(=O)n1ccc2cc(Oc3ccnc(NC(=O)c4ccc(C5CN(C(C)C)C5)cc4)c3)c(OCCCOC)cc21 [Example 123]			8.5
CCN1CC(c2ccc(C(=O)Nc3cc(Oc4cc5ccn(C(=O)NC)c5cc4OCCCOC)ccn3)cc2)C1 [Example 124]			8.9
CNC(=O)n1ccc2cc(Oc3ccnc(NC(=O)c4ccc(C5CCN(C(C)C)CC5)cc4)c3)c(OCCCOC)cc21 [Example 127]		226	
CNC(=O)n1ccc2cc(Oc3ccnc(NC(=O)c4ccc(C5CCN(CCO)CC5)cc4)c3)c(OCCCOC)cc21 [Example 128]			6.4
CCN1CCC(c2ccc(C(=O)Nc3cc(Oc4cc5ccn(C(=O)NC)c5cc4OCCCOC)ccn3)cc2)CC1 [Example 129]			7.7
